Measured values published in US20250136578A1 (Kolm Therapeutics Inc., priority 2023, published 2025).
Where two headings read alike, the source gives them in different places.

Key:
[1] = target: AR / CBP ternary complex (Homo sapiens, UniProt P10275+Q92793); assay: Ternary complex formation assay (sandwich ELISA, AR capture, CBP antibody detection) in VCaP cell lysates; format: cell-based
Outline: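 VCaP cells in 5% charcoal-stripped FBS were cultured ≥3 days and then given bifunctional compound for 1.5 h. Lysates went onto AR-antibody-coated plates. Bound CBP (or p300) was detected with a rabbit antibody plus HRP anti-rabbit, using QuantaRed chemifluorescence (ex 570/em 585) read immediately, at 5 min and at 15 min.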

[2] = test system: VCaP cells; assay: VCaP growth inhibition assay (CTG); format: cell-based; conditions: Homo sapiens, 216 h, 30 pM R1881, 9 days
Outline: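 VCaP cells in phenol red-free DMEM with 5% charcoal-stripped serum were stimulated with 30 pM R1881 (final) and treated with compound from 100 nM to 10 fM final (1:5 dilutions) for 9 days at 37 °C. Viability was read by CellTiter-Glo luminescence, and IC50 came from 4-parameter logistic fits.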

[3] = treated 1.5 hours, rabbit CBP or p300 antibody detection, average, read-out: Average Ternary Complex
[4] = read-out: Average Ternary Complex, treated 1.5 hours, rabbit CBP or p300 antibody detection

Sequence of AR / CBP ternary complex (P10275 whole entry): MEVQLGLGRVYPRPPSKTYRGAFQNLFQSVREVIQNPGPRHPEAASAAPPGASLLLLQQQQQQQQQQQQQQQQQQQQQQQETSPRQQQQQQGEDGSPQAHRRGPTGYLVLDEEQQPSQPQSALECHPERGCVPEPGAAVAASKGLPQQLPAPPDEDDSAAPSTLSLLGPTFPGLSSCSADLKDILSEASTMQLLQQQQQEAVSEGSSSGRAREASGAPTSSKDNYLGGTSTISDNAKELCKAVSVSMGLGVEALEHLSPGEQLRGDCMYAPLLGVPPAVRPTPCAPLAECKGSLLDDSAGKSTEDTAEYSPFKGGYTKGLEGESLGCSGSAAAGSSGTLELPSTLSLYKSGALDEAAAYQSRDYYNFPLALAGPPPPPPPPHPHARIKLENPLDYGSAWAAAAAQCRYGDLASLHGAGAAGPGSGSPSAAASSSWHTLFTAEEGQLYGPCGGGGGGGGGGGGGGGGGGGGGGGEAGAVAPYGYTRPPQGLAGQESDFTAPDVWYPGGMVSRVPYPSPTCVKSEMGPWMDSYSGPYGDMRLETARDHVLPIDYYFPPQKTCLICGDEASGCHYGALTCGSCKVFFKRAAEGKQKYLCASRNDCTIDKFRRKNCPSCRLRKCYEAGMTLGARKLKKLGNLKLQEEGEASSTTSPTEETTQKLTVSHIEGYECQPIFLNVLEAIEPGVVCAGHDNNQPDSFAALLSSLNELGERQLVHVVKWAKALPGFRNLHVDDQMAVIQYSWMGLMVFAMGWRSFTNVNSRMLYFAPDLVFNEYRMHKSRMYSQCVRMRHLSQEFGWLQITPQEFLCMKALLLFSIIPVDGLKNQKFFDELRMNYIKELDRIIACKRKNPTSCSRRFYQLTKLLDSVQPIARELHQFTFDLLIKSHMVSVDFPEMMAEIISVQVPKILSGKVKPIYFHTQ
Sequence of AR / CBP ternary complex (Q92793 2-2442): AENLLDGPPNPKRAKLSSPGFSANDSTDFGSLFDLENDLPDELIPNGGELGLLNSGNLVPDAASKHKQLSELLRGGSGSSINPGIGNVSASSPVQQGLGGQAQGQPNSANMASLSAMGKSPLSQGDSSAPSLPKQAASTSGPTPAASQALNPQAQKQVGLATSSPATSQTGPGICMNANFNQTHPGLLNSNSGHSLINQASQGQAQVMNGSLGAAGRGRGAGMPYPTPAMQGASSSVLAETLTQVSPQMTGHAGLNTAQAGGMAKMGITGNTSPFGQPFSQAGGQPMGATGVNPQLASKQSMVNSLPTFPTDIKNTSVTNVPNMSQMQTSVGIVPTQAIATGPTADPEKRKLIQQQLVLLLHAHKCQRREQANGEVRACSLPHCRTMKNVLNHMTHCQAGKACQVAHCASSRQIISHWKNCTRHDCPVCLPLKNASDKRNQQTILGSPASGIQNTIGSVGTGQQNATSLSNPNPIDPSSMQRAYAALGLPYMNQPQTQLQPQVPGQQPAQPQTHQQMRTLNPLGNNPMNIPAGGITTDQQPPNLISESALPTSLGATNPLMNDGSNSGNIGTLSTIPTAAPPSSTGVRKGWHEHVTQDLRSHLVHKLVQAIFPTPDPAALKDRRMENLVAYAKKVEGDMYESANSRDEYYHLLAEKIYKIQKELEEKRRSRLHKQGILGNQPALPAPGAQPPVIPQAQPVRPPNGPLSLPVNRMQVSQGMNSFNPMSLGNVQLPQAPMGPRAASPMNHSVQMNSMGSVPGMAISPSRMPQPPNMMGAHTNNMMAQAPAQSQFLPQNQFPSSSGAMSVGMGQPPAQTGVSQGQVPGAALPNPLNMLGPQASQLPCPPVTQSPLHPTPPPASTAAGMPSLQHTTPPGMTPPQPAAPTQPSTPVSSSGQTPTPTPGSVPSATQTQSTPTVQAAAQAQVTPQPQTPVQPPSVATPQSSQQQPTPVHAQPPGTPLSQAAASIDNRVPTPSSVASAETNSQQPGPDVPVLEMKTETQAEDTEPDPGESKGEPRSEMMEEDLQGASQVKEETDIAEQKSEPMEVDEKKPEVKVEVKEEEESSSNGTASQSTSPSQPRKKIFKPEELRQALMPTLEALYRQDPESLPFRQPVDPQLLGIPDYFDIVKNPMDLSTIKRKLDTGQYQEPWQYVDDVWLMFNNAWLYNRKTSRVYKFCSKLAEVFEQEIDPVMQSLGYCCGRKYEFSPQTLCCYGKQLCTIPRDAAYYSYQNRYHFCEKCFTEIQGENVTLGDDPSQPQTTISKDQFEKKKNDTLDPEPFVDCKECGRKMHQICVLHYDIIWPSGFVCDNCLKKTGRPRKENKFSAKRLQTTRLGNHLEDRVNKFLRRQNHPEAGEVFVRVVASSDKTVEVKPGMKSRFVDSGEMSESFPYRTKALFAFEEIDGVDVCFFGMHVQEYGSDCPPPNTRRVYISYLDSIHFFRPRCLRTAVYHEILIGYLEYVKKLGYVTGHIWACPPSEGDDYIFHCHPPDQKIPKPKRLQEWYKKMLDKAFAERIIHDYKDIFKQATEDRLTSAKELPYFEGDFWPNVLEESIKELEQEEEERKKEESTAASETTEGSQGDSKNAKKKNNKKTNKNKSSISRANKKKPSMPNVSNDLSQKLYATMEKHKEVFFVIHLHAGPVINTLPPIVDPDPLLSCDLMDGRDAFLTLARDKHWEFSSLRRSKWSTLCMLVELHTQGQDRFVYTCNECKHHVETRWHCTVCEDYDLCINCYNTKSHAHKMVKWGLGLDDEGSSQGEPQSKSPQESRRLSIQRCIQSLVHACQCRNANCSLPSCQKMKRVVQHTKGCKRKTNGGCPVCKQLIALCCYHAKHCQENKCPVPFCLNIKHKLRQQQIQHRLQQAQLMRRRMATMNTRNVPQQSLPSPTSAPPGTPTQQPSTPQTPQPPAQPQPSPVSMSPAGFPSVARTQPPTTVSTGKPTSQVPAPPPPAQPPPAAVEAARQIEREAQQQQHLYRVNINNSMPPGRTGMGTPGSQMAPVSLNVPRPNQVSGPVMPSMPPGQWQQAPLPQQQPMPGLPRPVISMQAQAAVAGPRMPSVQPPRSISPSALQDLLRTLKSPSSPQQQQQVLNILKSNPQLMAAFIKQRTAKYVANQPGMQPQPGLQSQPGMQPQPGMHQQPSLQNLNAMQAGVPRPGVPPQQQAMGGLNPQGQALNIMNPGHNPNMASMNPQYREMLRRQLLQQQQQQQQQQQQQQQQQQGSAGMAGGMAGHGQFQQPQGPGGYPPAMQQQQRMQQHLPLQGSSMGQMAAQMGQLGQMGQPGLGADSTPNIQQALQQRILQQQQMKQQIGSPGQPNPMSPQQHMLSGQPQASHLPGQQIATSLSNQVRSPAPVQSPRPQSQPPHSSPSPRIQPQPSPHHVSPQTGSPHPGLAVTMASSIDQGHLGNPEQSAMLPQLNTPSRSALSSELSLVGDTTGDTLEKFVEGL

Row | SMILES | EC50 [1, 3] | IC50 [2] | EC50 [1, 4]
1 | CC(=O)N1CCc2c(c(N3CCCc4cc(C)ncc43)nn2C2CCN(CC3CCN(c4ccc(C(=O)N[C@H]5CC[C@H](Oc6ccc(C#N)c(Cl)c6)CC5)nn4)CC3)CC2)C1 [Compound 107, 6-[4-[[4-[5-acetyl-3-(6-methyl-3,4-dihydro-2H-1,7-naphthyridin-1-yl)-6,7-dihydro-4H-pyrazolo[4,3-c]pyridin-1-yl]-1-piperidyl]methyl]-1-piperidyl]-N-[4-(3-chloro-4-cyano-phenoxy)cyclohexyl]pyridazine-3-carboxamide] | < 1 nM | ≤ 0.1 nM | –
2 | CC(=O)N1CCc2c(c(N3CCCc4cc(C5CC5)ncc43)nn2C2CCN(CC3CCN(c4ccc(C(=O)N[C@H]5CC[C@H](Oc6ccc(C#N)c(Cl)c6)CC5)nn4)CC3)CC2)C1 [Compound 108, 6-[4-[[4-[5-acetyl-3-(6-cyclopropyl-3,4-dihydro-2H-1,7-naphthyridin-1-yl)-6,7-dihydro-4H-pyrazolo[4,3-c]pyridin-1-yl]-1-piperidyl]methyl]-1-piperidyl]-N-[4-(3-chloro-4-cyano-phenoxy)cyclohexyl]pyridazine-3-carboxamide] | 1 to 10 nM | 0.1 to 1 nM | –
3 | COc1cc2c(cn1)N(c1nn(C3CCN(CC4CCN(c5ccc(C(=O)N[C@H]6CC[C@H](Oc7ccc(C#N)c(Cl)c7)CC6)nn5)CC4)CC3)c3c1CN(C(C)=O)CC3)CCC2 [Compound 109, 6-[4-[[4-[5-acetyl-3-(6-methoxy-3,4-dihydro-2H-1,7-naphthyridin-1-yl)-6,7-dihydro-4H-pyrazolo[4,3-c]pyridin-1-yl]-1-piperidyl]methyl]-1-piperidyl]-N-[4-(3-chloro-4-cyano-phenoxy)cyclohexyl]pyridazine-3-carboxamide] | 10 to 100 nM | 0.1 to 1 nM | –
4 | CC(=O)N1CCc2c(c(N3CCCc4cc(-c5cnn(C)c5)c(C(F)F)cc43)nn2C2CCC3(CC2)CCN(c2ccc(C(=O)N[C@H]4CC[C@H](Oc5ccc(C#N)c(Cl)c5)CC4)nn2)CC3)C1 [Compound 112, 6-[9-[5-acetyl-3-[7-(difluorodimethyl)-6-(1-methylpyrazol-4-yl)-3,4-dihydro-2H-quinolin-1-yl]-6,7-dihydro-4H-pyrazolo[4,3-c]pyridin-1-yl]-3-azaspiro[5.5]undecan-3-yl]-N-[4-(3-chloro-4-cyano-phenoxy)cyclohexyl]pyridazine-3-carboxamide] | < 1 nM | 0.1 to 1 nM | –
5 | CC(=O)N1CCc2c(c(N3CCCc4cc(C#N)ccc43)nn2C2CCC3(CC2)CCN(c2ccc(C(=O)N[C@H]4CC[C@H](Oc5ccc(C#N)c(Cl)c5)CC4)nn2)CC3)C1 [Compound 113, 6-[9-[5-acetyl-3-(6-cyano-3,4-dihydro-2H-quinolin-1-yl)-6,7-dihydro-4H-pyrazolo[4,3-c]pyridin-1-yl]-3-azaspiro[5.5]undecan-3-yl]-N-[4-(3-chloro-4-cyano-phenoxy)cyclohexyl]pyridazine-3-carboxamide] | < 1 nM | 0.1 to 1 nM | –
6 | CC(=O)N1CCc2c(c(N3CCCc4cc(-c5cnn(C)c5)c(C(F)F)cc43)nn2C2CCN(CC3C4CC3CN(c3ccc(C(=O)N[C@H]5CC[C@H](Oc6ccc(C#N)c(Cl)c6)CC5)nn3)C4)CC2)C1 (stereo partly drawn) [Compound 118, 6-[6-[[4-[5-acetyl-3-[7-(difluoromethyl)-6-(1-methylpyrazol-4-yl)-3,4-dihydro-2H-quinolin-1-yl]-6,7-dihydro-4H-pyrazolo[4,3-c]pyridin-1-yl]-1-piperidyl]methyl]-3-azabicyclo [3.1.1]heptan-3-yl]-N-[4-(3-chloro-4-cyano-phenoxy)cyclohexyl] pyridazine-3-carboxamide] | – | 0.1 to 1 nM | < 1 nM
7 | CC(=O)N1CCc2c(c(-c3cccc4ccncc34)nn2C2CCN(CC3CCN(c4ccc(C(=O)N[C@H]5CC[C@H](Oc6ccc(C#N)c(Cl)c6)CC5)nn4)CC3)CC2)C1 [Compound 120, 6-[4-[[4-[5-acetyl-3-(8-isoquinolyl)-6,7-dihydro-4H-pyrazolo[4,3-c]pyridin-1-yl]-1-piperidyl]methyl]-1-piperidyl]-N-[4-(3-chloro-4-cyano-phenoxy)cyclohexyl]pyridazine-3-carboxamide] | < 1 nM | 0.1 to 1 nM | –
8 | CC(=O)N1CCc2c(c(-c3cccc4cc(C#N)ncc34)nn2C2CCN(CC3CCN(c4ccc(C(=O)N[C@H]5CC[C@H](Oc6ccc(C#N)c(Cl)c6)CC5)nn4)CC3)CC2)C1 [Compound 121, 6-[4-[[4-[5-acetyl-3-(3-cyano-8-isoquinolyl)-6,7-dihydro-4H-pyrazolo[4,3-c]pyridin-1-yl]-1-piperidyl]methyl]-1-piperidyl]-N-[4-(3-chloro-4-cyano-phenoxy)cyclohexyl]pyridazine-3-carboxamide] | < 1 nM | 0.1 to 1 nM | –
9 | CC(=O)N1CCc2c(c(-c3cccc4cc(C)ncc34)nn2C2CCN(CC3CCN(c4ccc(C(=O)N[C@H]5CC[C@H](Oc6ccc(C#N)c(Cl)c6)CC5)nn4)CC3)CC2)C1 [Compound 122, -[4-[[4-[5-acetyl-3-(3-methyl-8-isoquinolyl)-6,7-dihydro-4H-pyrazolo[4,3-c]pyridin-1-yl]-1-piperidyl]methyl]-1-piperidyl]-N-[4-(3-chloro-4-cyano-phenoxy)cyclohexyl]pyridazine-3-carboxamide] | < 1 nM | 0.1 to 1 nM | –
10 | CC(=O)N1CCc2c(c(-c3cccc4cc(C5CC5)ncc34)nn2C2CCN(CC3CCN(c4ccc(C(=O)N[C@H]5CC[C@H](Oc6ccc(C#N)c(Cl)c6)CC5)nn4)CC3)CC2)C1 [Compound 123, 6-[4-[[4-[5-acetyl-3-(3-cyclopropyl-8-isoquinolyl)-6,7-dihydro-4H-pyrazolo[4,3-c]pyridin-1-yl]-1-piperidyl]methyl]-1-piperidyl]-N-[4-(3-chloro-4-cyano-phenoxy)cyclohexyl]pyridazine-3-carboxamide] | < 1 nM | 0.1 to 1 nM | –
11 | CC(=O)N1CCc2c(c(N3CCCc4cc(-c5cnn(C)c5)c(C(F)F)cc43)nn2C2CCN(CC3CC4CCC(C3)N4c3ccc(C(=O)N[C@H]4CC[C@H](Oc5ccc(C#N)c(Cl)c5)CC4)nn3)CC2)C1 (stereo partly drawn) [Compound 126, 6-[3-[[4-[5-acetyl-3-[7-(difluoromethyl)-6-(1-methylpyrazol-4-yl)-3,4-dihydro-2H-quinolin-1-yl]-6,7-dihydro-4H-pyrazolo[4,3-c]pyridin-1-yl]-1-piperidyl]methyl]-8-azabicyclo[3.2.1]octan-8-yl]-N-[4-(3-chloro-4-cyano-phenoxy)cyclohexyl]pyridazine-3-carboxamide] | – | ≤ 0.1 nM | < 1 nM
12 | Cc1noc(C)c1-c1ccc2c(c1)nc(C1CCCC(=O)N1c1ccc(F)c(F)c1)n2C1CCN(CC2CCN(c3ccc(C(=O)N[C@H]4CC[C@H](Oc5ccc(C#N)c(Cl)c5)CC4)nn3)CC2)CC1 (stereo partly drawn) [Compound 127, N-[4-(3-chloro-4-cyano-phenoxy)cyclohexyl]-6-[4-[[4-[2-[1-(3,4-difluorophenyl)-6-oxo-2-piperidyl]-5-(3,5-dimethylisoxazol-4-yl)benzimidazol-1-yl]-1-piperidyl]methyl]-1-piperidyl]pyridazine-3-carboxamide] | > 100 nM | > 100 nM | –
